In patent publication US8912120B2, “Herbicidal compositions comprising 4-amino-3-chloro-5-fluoro-6-(4-chloro-2-fluoro-3-methoxyphenyl) pyridine-2-carboxylic acid or a derivative thereof and synthetic auxin herbicides” (Dow AgroSciences, LLC., priority 2012, dated 2014):
Where two headings read alike, the source gives them in different places.

Columns and labels:
ECHCG [1] = assay: Example II: in-water applied herbicidal mixtures, transplanted paddy rice, ECHCG; format: in vivo, Echinochloa crus-galli (barnyardgrass); details: for Visual Weed Control (%) - 21 DAA ECHCG Obs / Visual Weed Control (%) - 22 DAA ECHCG Obs: in-water application
Procedure, shortened: (§1)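 Flooded-mud greenhouse setup with rice transplanted at the 2–3 leaf stage, 4 days before herbicides were added to the water layer by pipette; solvent content matched across all pots.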

IPOHE = assay: Example I: postemergence foliar-applied herbicidal mixtures, direct seeded rice, IPOHE; format: in vivo, Ipomoea hederacea (ivyleaf morningglory)
Protocol: (§2) The soil matrix was contained in plastic pots with a volume of 1 quart and a surface area of 83.6 square centimeters (cm^2). […] The plants were grown for 8-22 days in a greenhouse with an approximate 14 h photoperiod which was maintained at about 29° C. during the day and 26° C. during the night. Nutrients (Peters Excel® 15-5-15 5-Ca 2-Mg and iron chelate) were applied in the irrigation solution as needed and water was added on a regular basis. Supplemental lighting was provided with overhead metal halide 1000-Watt lamps as necessary. The plants were employed for testing when they reached the first through fourth true leaf stage.
(§3) Treatments consisted of the acid or esters of 4-amino-3-chloro-5-fluoro-6-(4-chloro-2-fluoro-3-methoxy-phenyl)pyridine-2-carboxylic acid (Compound A), each formulated as an SC (suspension concentrate), and various herbicidal components alone and in combination. Forms of compound A were applied on an acid equivalent basis.
(§4) For treatments comprised of formulated compounds, measured amounts of compounds were placed individually in 25 mL glass vials and diluted in a volume of 1.25% (v/v) Agri-Dex® crop oil concentrated to obtain 12× stock solutions. […] Application solutions were prepared by adding an appropriate amount of each stock solution (e.g., 1 mL) and diluted to the appropriate final concentrations with the addition of 10 mL of an aqueous mixture of 1.25% (v/v) crop oil concentrate so that the final spray solutions contained 1.25+/−0.05% (v/v) crop oil concentrate.
(§5) All stock solutions and applications solutions were visually inspected for compound compatibility prior to application. Spray solutions were applied to the plant material with an overhead Mandel track sprayer equipped with a 8002E nozzles calibrated to deliver 187 L/ha over an application area of 0.503 m^2 at a spray height of 18 to 20 inches (46 to 50 cm) above average plant canopy height. Control plants were sprayed in the same manner with the solvent blank.
(§6) The treated plants and control plants were placed in a greenhouse as described above and watered by sub-irrigation to prevent wash-off of the test compounds. After approximately 3 weeks, the condition of the test plants as compared with that of the untreated plants was determined visually and scored on a scale of 0 to 100 percent where 0 corresponds to no injury or growth inhibition and 100 corresponds to complete kill.
(§7) Colby's equation was used to determine the herbicidal effects expected from the mixtures (Colby, S. R. 1967. Calculation of the synergistic and antagonistic response of herbicide combinations. Weeds 15:20-22).
(§8) The following equation was used to calculate the expected activity of mixtures containing two active ingredients, A and B: Expected=A+B−(A×B/100)
(§9) A=observed efficacy of active ingredient A at the same concentration as used in the mixture.
(§10) B=observed efficacy of active ingredient B at the same concentration as used in the mixture.

ECHCO = assay: Example I: postemergence foliar-applied herbicidal mixtures, direct seeded rice, ECHCO; details: for Visual Weed Control (%) - 21 DAA ECHCO Obs: Fluroxypyr MHE 0 gae/ha
Protocol: as §2, §3, §4, §5, §6, §7, §8, §9, §10

SORHA = assay: Example III: postemergence foliar-applied herbicidal mixtures, row crop weeds, SORHA; format: in vivo, Sorghum halepense (johnsongrass); details: 13 DAA
Protocol: The plants were grown for 7-31 days (d) in a greenhouse with an approximate 15 hour (h) photoperiod which was maintained at about 23-29° C. during the day and 22-28° C. during the night.

CYPRO = assay: Example II: in-water applied herbicidal mixtures, weed control in transplanted paddy rice (greenhouse), CYPRO; format: in vivo, Cyperus rotundus (purple nutsedge); details: for Visual Weed Control (%) - 21 DAA CYPRO Obs / Visual Weed Control (%) - 22 DAA CYPRO Obs: in-water application; for Visual Weed Control (%) Obs: 20 DAA
Procedure, shortened: as §1

SCPMA = assay: Example II: in-water applied herbicidal mixtures, transplanted paddy rice, SCPMA; format: in vivo
Procedure, shortened: as §1

ECHCG [2] = assay: Example I: postemergence foliar-applied herbicidal mixtures, direct seeded rice, ECHCG
Protocol: as §2, §3, §4, §5, §6, §7, §8, §9, §10

LEFCH [3] = assay: Example II: in-water applied herbicidal mixtures, transplanted paddy rice, LEFCH; format: in vivo, Leptochloa chinensis (Chinese sprangletop); details: for Visual Weed Control (%) - 21 DAA LEFCH Obs / Visual Weed Control (%) - 25 DAA LEFCH Obs: in-water application
Procedure, shortened: as §1

DIGSA = assay: Example I: postemergence foliar-applied herbicidal mixtures, direct seeded rice, DIGSA
LEFCH [4] = assay: Example I: postemergence foliar-applied herbicidal mixtures, direct seeded rice, LEFCH; format: in vivo, Leptochloa chinensis (Chinese sprangletop)
CYPIR = assay: Example I: postemergence foliar-applied herbicidal mixtures, direct seeded rice, CYPIR; format: in vivo, Cyperus iria (rice flatsedge)
Protocol: as §2, §3, §4, §5, §6, §7, §8, §9, §10

BRSNN = assay: Example IV: postemergence foliar-applied herbicidal mixtures, cereal crops, BRSNN; format: in vivo, Brassica napus (volunteer canola); details: 8.75 gai/ha
Protocol: Seeds of the desired test plant species were planted in Sun Gro MetroMix 306 planting mixture, which typically has a pH of 6.0 to 6.8 and an organic matter content of about 30 percent, in plastic pots with a surface area of 103.2 square centimeters (cm^2). […] The plants were grown for 7-36 days in a greenhouse with an approximate 14 hour photoperiod which was maintained at about 18° C. during the day and 17° C. during the night.
Spray solutions of the second cereal herbicide and experimental compound mixtures were prepared by adding the stock solutions to the appropriate amount of dilution solution to form 12 mL spray solution with active ingredients in two- and three-way combinations.

ECHOR = assay: Example II: in-water applied herbicidal mixtures, transplanted paddy rice, ECHOR; format: in vivo, Echinochloa oryzoides (early watergrass); details: for Visual Weed Control (%) - 20 DAA ECHOR Obs / Visual Weed Control (%) - 22 DAA ECHOR Obs: in-water application
Procedure, shortened: as §1

COc1c(Cl)ccc(-c2nc(C(=O)OCc3ccccc3)c(Cl)c(N)c2F)c1F [Compound A Benzyl Ester, benzyl ester of 4-amino-3-chloro-5-fluoro-6-(4-chloro-2-fluoro-3-methoxy-phenyl)pyridine-2-carboxylic acid]
50%: Visual Weed Control (%) - 20 DAA ECHCO Obs (ECHCO; 4.38 gae/ha) | Visual Weed Control (%) - 25 DAA LEFCH Obs (LEFCH [3]; 8.75 gae/ha) | Visual Injury (%) Obs (LEFCH [3]; 25 DAA, 8.75 gae/ha) | Visual Weed Control (%) Obs (LEFCH [3]; 25 DAA, 8.75 gae/ha) | Visual Weed Control (%) - 20 DAA ECHOR Obs (ECHOR; 17.5 gae/ha)
23%: Weed Control Ob (BRSNN; after 20-22 days) | BRSNN Ob (observed value) (BRSNN; alone, foliar, 20-22 days)
38%: Visual Weed Control (%) - 20 DAA DIGSA Obs (DIGSA; 35 gae/ha)
80%: Visual Weed Control (%) Obs (LEFCH [3]; 19 DAA, 35 gae/ha)
40%: Visual Weed Control (%) Obs (ECHCG [1]; 20 DAA, 17.5 gae/ha) | Visual Weed Control (%) - 23 DAA ECHCO Obs (ECHCO; 4.38 gae/ha) | Visual Weed Control (%) - 23 DAA ECHCO Obs (ECHCO; 8.75 gae/ha) | Visual Weed Control (%) - 23 DAA ECHCG Obs (ECHCG [2]; 4.38 gae/ha)
90%: Visual Weed Control (%) Obs (ECHCG [1]; 22 DAA, 17.5 gae/ha) | Visual Weed Control (%) - 22 DAA CYPRO Obs (CYPRO; 4.38 gae/ha) | Visual Weed Control (%) - 25 DAA LEFCH Obs (LEFCH [3]; 17.5 gae/ha) | Visual Injury (%) Obs (LEFCH [3]; 25 DAA, 17.5 gae/ha) | Visual Weed Control (%) Obs (LEFCH [3]; 25 DAA, 17.5 gae/ha) | pest or weed control at 17.5 g/ha (ECHOR; Echinochloa oryzoides, 600 h, read-out: Visual Weed Control (%) Obs, 25 DAA, 17.5 gae/ha)
73%: pest or weed control at 35 g/ha (ECHOR; Echinochloa oryzoides, 480 h, read-out: Visual Weed Control (%) Obs, 20 DAA, 35 gae/ha)
25%: Visual Weed Control (%) - 21 DAA ECHCG Obs (ECHCG [1]; 17.5 gae/ha) | Visual Weed Control (%) - 20 DAA IPOHE Obs (IPOHE; 17.5 gae/ha) | Visual Weed Control (%) - 22 DAA ECHOR Obs (ECHOR; 8.75 gae/ha) | pest or weed control at 16 g/ha (ECHOR; Echinochloa oryzoides, 456 h, read-out: Visual Weed Control (%) Obs, 19 DAA, 16 gae/ha) | pest or weed control at 4.38 g/ha (ECHOR; Echinochloa oryzoides, 480 h, read-out: Visual Weed Control (%) Obs, 20 DAA, 4.38 gae/ha)
15%: Visual Weed Control (%) Obs (ECHCG [1]; 20 DAA, 4.38 gae/ha) | Visual Weed Control (%) - 23 DAA DIGSA Obs (DIGSA; 17.5 gae/ha) | pest or weed control at 4.38 g/ha (ECHOR; Echinochloa oryzoides, 504 h, read-out: Visual Weed Control (%) Obs, 21 DAA, 4.38 gae/ha) | pest or weed control at 8.75 g/ha (ECHOR; Echinochloa oryzoides, 504 h, read-out: Visual Weed Control (%) Obs, 21 DAA, 8.75 gae/ha)
10%: Visual Weed Control (%) - 20 DAA IPOHE Obs (IPOHE; 8.75 gae/ha) | Visual Weed Control (%) Obs (SORHA; 15 gae/ha) | Visual Weed Control (%) - 21 DAA ECHCG Obs (ECHCG [2]; Compound A Benzyl Ester rate printed '—', Fluroxypyr MHE 0 gae/ha) | Visual Weed Control (%) - 20 DAA ECHOR Obs (ECHOR; 4.38 gae/ha) | pest or weed control at 8 g/ha (ECHOR; Echinochloa oryzoides, 456 h, read-out: Visual Weed Control (%) Obs, 19 DAA, 8 gae/ha)
85%: Visual Weed Control (%) Obs (ECHCG [1]; 19 DAA, 16 gae/ha) | Visual Weed Control (%) - 21 DAA ECHCG Obs (ECHCG [2]; Compound A Benzyl Ester rate printed '—' (second line), Fluroxypyr MHE 0 gae/ha) | Visual Weed Control (%) - 21 DAA CYPIR Obs (CYPIR; 8.75 gae/ha) | pest or weed control at 8.75 g/ha (ECHOR; Echinochloa oryzoides, 600 h, read-out: Visual Weed Control (%) Obs, 25 DAA, 8.75 gae/ha)
75%: Visual Weed Control (%) - 20 DAA ECHCO Obs (ECHCO; 8.75 gae/ha) | Visual Weed Control (%) - 23 DAA ECHCO Obs (ECHCO; 17.5 gae/ha) | Visual Weed Control (%) - 21 DAA ECHCO Obs (ECHCO; Compound A Benzyl Ester rate printed '—' (second line)) | Visual Weed Control (%) - 21 DAA CYPIR Obs (CYPIR; 4.38 gae/ha)
45%: Visual Weed Control (%) - 22 DAA ECHCG Obs (ECHCG [1]; 8.75 gae/ha) | Visual Weed Control (%) Obs (ECHCG [1]; 22 DAA, 8.75 gae/ha) | Visual Weed Control (%) - 22 DAA ECHOR Obs (ECHOR; 17.5 gae/ha)
20%: Visual Weed Control (%) Obs (ECHCG [1]; 20 DAA, 8.75 gae/ha) | Visual Weed Control (%) - 20 DAA LEFCH Obs (LEFCH [4]; 8.75 gae/ha) | Visual Weed Control (%) - 20 DAA ECHOR Obs (ECHOR; 8.75 gae/ha) | pest or weed control at 8.75 g/ha (ECHOR; Echinochloa oryzoides, 480 h, read-out: Visual Weed Control (%) Obs, 20 DAA, 8.75 gae/ha) | pest or weed control at 17.5 g/ha (ECHOR; Echinochloa oryzoides, 504 h, read-out: Visual Weed Control (%) Obs, 21 DAA, 17.5 gae/ha)
70%: Visual Weed Control (%) - 21 DAA ECHCO Obs (ECHCO; Compound A Benzyl Ester rate printed '—') | Visual Weed Control (%) - 22 DAA CYPRO Obs (CYPRO; 8.75 gae/ha)
48%: Visual Weed Control (%) - 21 DAA ECHCG Obs (ECHCG [2]; 4.38 gae/ha)
58%: Visual Weed Control (%) - 19 DAA LEFCH Obs (LEFCH [4]; 16 gae/ha)
55%: Visual Weed Control (%) - 21 DAA ECHCG Obs (ECHCG [2]; 8.75 gae/ha) | Visual Weed Control (%) - 23 DAA ECHCG Obs (ECHCG [2]; 8.75 gae/ha)
35%: Visual Weed Control (%) Obs (ECHCG [1]; 19 DAA, 8 gae/ha) | Visual Weed Control (%) - 20 DAA CYPIR Obs (CYPIR; 8.75 gae/ha) | pest or weed control at 32 g/ha (ECHOR; Echinochloa oryzoides, 456 h, read-out: Visual Weed Control (%) Obs, 19 DAA, 32 gae/ha) | pest or weed control at 8.75 g/ha (ECHOR; Echinochloa oryzoides, 528 h, read-out: Visual Weed Control (%) Obs, 22 DAA, 8.75 gae/ha)
0%: Visual Weed Control (%) - 21 DAA ECHCG Obs (ECHCG [1]; 4.38 gae/ha) | Visual Weed Control (%) - 21 DAA ECHCG Obs (ECHCG [1]; 8.75 gae/ha) | Visual Weed Control (%) - 20 DAA IPOHE Obs (IPOHE; 4.38 gae/ha) | Visual Weed Control (%) Obs (SORHA; 3.75 gae/ha) | Visual Weed Control (%) Obs (SORHA; 7.5 gae/ha) | Visual Weed Control (%) - 21 DAA CYPRO Obs (CYPRO; 4.38 gae/ha) | Visual Weed Control (%) - 21 DAA CYPRO Obs (CYPRO; 8.75 gae/ha) | Visual Weed Control (%) Obs (CYPRO; 4.38 gae/ha) | Visual Weed Control (%) Obs (CYPRO; 8.75 gae/ha) | Visual Weed Control (%) Obs (SCPMA; 20 DAA, 35 gae/ha) | Visual Weed Control (%) Obs (SCPMA; 20 DAA, 70 gae/ha) | Visual Weed Control (%) Obs (SCPMA; 21 DAA, 4.38 gae/ha) | Visual Weed Control (%) Obs (SCPMA; 21 DAA, 8.75 gae/ha) | Visual Weed Control (%) Obs (SCPMA; 21 DAA, 17.5 gae/ha) | Visual Weed Control (%) Obs (SCPMA; 22 DAA, 4.38 gae/ha) | Visual Weed Control (%) Obs (SCPMA; 22 DAA, 8.75 gae/ha) | Visual Weed Control (%) Obs (SCPMA; 22 DAA, 17.5 gae/ha) | Visual Weed Control (%) - 21 DAA LEFCH Obs (LEFCH [3]; 4.38 gae/ha) | Visual Weed Control (%) - 21 DAA LEFCH Obs (LEFCH [3]; 8.75 gae/ha) | Visual Weed Control (%) - 21 DAA LEFCH Obs (LEFCH [3]; 17.5 gae/ha) | Visual Weed Control (%) - 23 DAA DIGSA Obs (DIGSA; 4.38 gae/ha) | Visual Weed Control (%) - 23 DAA DIGSA Obs (DIGSA; 8.75 gae/ha) | Visual Weed Control (%) - 20 DAA LEFCH Obs (LEFCH [4]; 4.38 gae/ha)
30%: Visual Weed Control (%) - 22 DAA ECHCG Obs (ECHCG [1]; 4.38 gae/ha) | Visual Weed Control (%) Obs (ECHCG [1]; 22 DAA, 4.38 gae/ha) | pest or weed control at 17.5 g/ha (ECHOR; Echinochloa oryzoides, 480 h, read-out: Visual Weed Control (%) Obs, 20 DAA, 17.5 gae/ha) | pest or weed control at 17.5 g/ha (ECHOR; Echinochloa oryzoides, 528 h, read-out: Visual Weed Control (%) Obs, 22 DAA, 17.5 gae/ha)
